Reference: patent publication US11214594B2, “Antimicrobial peptide having synergistic antibacterial effect with antibiotics on multidrug resistant bacteria, and use thereof” (priority 2016, dated 2022)
In brackets after ≈: the same amount, converted by molar mass. Where a SMILES comes first, the peptide text is derived from it.

Key:
MDREC 1238 = format: cell-based, Escherichia coli
Description: (§1) For the antibacterial activity, a minimal inhibitory concentration (MIC) of a peptide in which fungus bodies were not split in an MH medium with sufficient nutrients was measured.
(§2) Specifically, the strains described in the following [Table 2] were purchased and diluted with an MH medium such that the number of bacteria was 2×10^6 colony-forming units (CFUs), 100 μl of each of the diluted strains was aliquoted into a 96-well microtiter plate, and then 100 μl of a peptide solution diluted with the MH medium (solution diluted stepwise at 2: 1) was added to each well.

P. aeruginosa = assay: microbe, parasite or virus in culture; format: cell-based, Pseudomonas aeruginosa
Description: as §1, §2

MDRPA 2002 = format: cell-based, Pseudomonas aeruginosa
Description: as §1, §2

MDRPA 2003 = format: cell-based, Pseudomonas aeruginosa
Description: as §1, §2

A. baumannii = assay: microbe, parasite or virus in culture; format: cell-based, Acinetobacter baumannii
Description: as §1, §2

MDRAB 12035 [1] = assay: microbe, parasite or virus in culture; format: cell-based, Acinetobacter baumannii
Description: as §1, §2

S. typhimurium = assay: microbe, parasite or virus in culture; format: cell-based, Salmonella typhimurium
Description: as §1, §2

MDRST 8009 = format: cell-based, Salmonella typhimurium; conditions: agent alone
Description: as §1, §2

S. epidermidis = assay: microbe, parasite or virus in culture; format: cell-based, Staphylococcus epidermidis
Description: as §1, §2

MRSA 3114 = format: cell-based, Staphylococcus aureus; conditions: 3114
Description: as §1, §2

MRSA 3126 = format: cell-based, Staphylococcus aureus; conditions: 3126
Description: as §1, §2

MDRAB 12035 [2] = assay: MIC of antibiotic during combined treatment with antimicrobial peptide; format: cell-based, Acinetobacter baumannii
Description: Specifically, the strains described in [Table 2] were prepared and diluted with an MH medium such that the number of bacteria was 2×10^6 colony-forming units (CFUs) per 1 ml, 100 μl of the diluted strains was each aliquoted into a 96-well microtiter plate, and then 50 μl of a peptide solution diluted with the MH medium from the MIC value (solution diluted stepwise at 2: 1) was added to each well. Thereafter, the MIC value of each mixed solution was determined by diluting the antibiotic solution with the MH medium, adding 50 μl of the diluted solution to each well, and performing an experiment even under a reversed condition.

[3] = peptide treatment concentration 1 μg/ml
[4] = peptide treatment concentration 2 μg/ml
[5] = peptide treatment concentration 4 μg/ml
[6] = peptide treatment concentration 6 μg/ml
[7] = peptide treatment concentration 8 μg/ml
[8] = peptide treatment concentration 16 μg/ml
[9] = peptide treatment concentration 32 μg/ml
[10] = peptide treatment concentration 64 μg/ml

Structure (SMILES)	Minimal inhibitory concentration MIC (MDREC 1238)	Minimal inhibitory concentration MIC (P. aeruginosa)	Minimal inhibitory concentration MIC (MDRPA 2002)	Minimal inhibitory concentration MIC (MDRPA 2003)	Minimal inhibitory concentration MIC (A. baumannii)	Peptide MIC, peptide alone (A. baumannii)	Minimal inhibitory concentration MIC (MDRAB 12035 [1])	Peptide MIC, peptide alone (MDRAB 12035 [1])	Minimal inhibitory concentration MIC (S. typhimurium)	Minimal inhibitory concentration MIC (MDRST 8009)	Minimal inhibitory concentration MIC (S. epidermidis)	Minimal inhibitory concentration MIC (MRSA 3114)	Minimal inhibitory concentration MIC (MRSA 3126)	Erythromycin MIC during combined treatment with peptide (MDRAB 12035 [2]; [3])	Linezolid MIC during combined treatment with peptide (MDRAB 12035 [2]; [3])	Vancomycin MIC during combined treatment with peptide (MDRAB 12035 [2]; [3])	Erythromycin MIC during combined treatment with peptide (MDRAB 12035 [2]; [4])	Linezolid MIC during combined treatment with peptide (MDRAB 12035 [2]; [4])	Vancomycin MIC during combined treatment with peptide (MDRAB 12035 [2]; [4])	Erythromycin MIC during combined treatment with peptide (MDRAB 12035 [2]; [5])	further results
CC[C@H](C)[C@H](NC(=O)[C@H](CCCCN)NC(=O)[C@H](Cc1c[nH]c2ccccc12)NC(=O)[C@@H](N)CCCNC(=N)N)C(=O)N[C@@H](Cc1ccccc1)C(=O)N[C@@H](CCCCN)C(=O)N[C@@H](CCCCN)C(=O)N[C@H](C(=O)N1CCC[C@H]1C(=O)N[C@@H](CCCCN)C(=O)N[C@@H](Cc1ccccc1)C(=O)N[C@@H](CC(C)C)C(=O)N[C@@H](Cc1c[nH]cn1)C(=O)N[C@@H](CO)C(=O)N[C@@H](C)C(=O)N[C@@H](CCCCN)C(=O)N[C@@H](CCCCN)C(=O)N[C@@H](Cc1ccccc1)C(N)=O)[C@@H](C)CC [PapMA-1, RWK IFK KIP KFL HSA KKF-NH2] (H-RWKIFKKIPKFLHSAKKF-NH2; N-terminus assumed)	64 µg/mL (≈ 27.8 µM)	16 µg/mL (≈ 6.95 µM)	16 µg/mL (≈ 6.95 µM)	32 µg/mL (≈ 13.9 µM)	64 µg/mL (≈ 27.8 µM)	64 µg/mL	64 µg/mL (≈ 27.8 µM)	64 µg/mL	64 µg/mL (≈ 27.8 µM)	64 µg/mL (≈ 27.8 µM)	>128 µg/mL	>128 µg/mL	>128 µg/mL	32 µg/mL	>128 µg/mL	>128 µg/mL	32 µg/mL	128 µg/mL	>128 µg/mL	16 µg/mL	Linezolid MIC during combined treatment with peptide (MDRAB 12035 [2]; [5]): 64 µg/mL; Vancomycin MIC during combined treatment with peptide (MDRAB 12035 [2]; [5]): 128 µg/mL; Erythromycin MIC during combined treatment with peptide (MDRAB 12035 [2]; [6]): 4 µg/mL; Linezolid MIC during combined treatment with peptide (MDRAB 12035 [2]; [6]): 32 µg/mL; Vancomycin MIC during combined treatment with peptide (MDRAB 12035 [2]; [6]): 32 µg/mL; Erythromycin MIC during combined treatment with peptide (MDRAB 12035 [2]; [7]): 0.5 µg/mL; Linezolid MIC during combined treatment with peptide (MDRAB 12035 [2]; [7]): 16 µg/mL; Vancomycin MIC during combined treatment with peptide (MDRAB 12035 [2]; [7]): 16 µg/mL; Erythromycin MIC during combined treatment with peptide (MDRAB 12035 [2]; [8]): 0.25 µg/mL; Linezolid MIC during combined treatment with peptide (MDRAB 12035 [2]; [8]): 8 µg/mL; Vancomycin MIC during combined treatment with peptide (MDRAB 12035 [2]; [8]): 16 µg/mL; Erythromycin MIC during combined treatment with peptide (MDRAB 12035 [2]; [9]): 0.125 µg/mL; Linezolid MIC during combined treatment with peptide (MDRAB 12035 [2]; [9]): 4 µg/mL; Vancomycin MIC during combined treatment with peptide (MDRAB 12035 [2]; [9]): 8 µg/mL; Erythromycin MIC during combined treatment with peptide (MDRAB 12035 [2]; [10]): 0 µg/mL; Linezolid MIC during combined treatment with peptide (MDRAB 12035 [2]; [10]): 0 µg/mL; Vancomycin MIC during combined treatment with peptide (MDRAB 12035 [2]; [10]): 0 µg/mL
CC[C@H](C)[C@H](NC(=O)[C@H](CCCCN)NC(=O)[C@H](Cc1c[nH]c2ccccc12)NC(=O)[C@@H](N)CCCNC(=N)N)C(=O)N[C@@H](Cc1ccccc1)C(=O)N[C@@H](CCCCN)C(=O)N[C@@H](CCCCN)C(=O)N[C@H](C(=O)N1CCC[C@H]1C(=O)N[C@@H](CCCCN)C(=O)N[C@@H](Cc1ccccc1)C(=O)N[C@@H](CC(C)C)C(=O)N[C@@H](Cc1c[nH]cn1)C(=O)N[C@@H](CO)C(=O)N[C@@H](Cc1ccccc1)C(=O)N[C@@H](CCCCN)C(=O)N[C@@H](CCCCN)C(=O)N[C@@H](Cc1ccccc1)C(N)=O)[C@@H](C)CC [PapMA-5, RWK IFK KIP KFL HSF KKF-NH2] (H-RWKIFKKIPKFLHSFKKF-NH2; N-terminus assumed)	64 µg/mL (≈ 26.9 µM)	16 µg/mL (≈ 6.73 µM)	16 µg/mL (≈ 6.73 µM)	16 µg/mL (≈ 6.73 µM)	64 µg/mL (≈ 26.9 µM)	64 µg/mL	64 µg/mL (≈ 26.9 µM)	64 µg/mL	64 µg/mL (≈ 26.9 µM)	64 µg/mL (≈ 26.9 µM)	>128 µg/mL	>128 µg/mL	>128 µg/mL	32 µg/mL	>128 µg/mL	>128 µg/mL	32 µg/mL	128 µg/mL	>128 µg/mL	16 µg/mL	Linezolid MIC during combined treatment with peptide (MDRAB 12035 [2]; [5]): 64 µg/mL; Vancomycin MIC during combined treatment with peptide (MDRAB 12035 [2]; [5]): 128 µg/mL; Erythromycin MIC during combined treatment with peptide (MDRAB 12035 [2]; [6]): 2 µg/mL; Linezolid MIC during combined treatment with peptide (MDRAB 12035 [2]; [6]): 16 µg/mL; Vancomycin MIC during combined treatment with peptide (MDRAB 12035 [2]; [6]): 32 µg/mL; Erythromycin MIC during combined treatment with peptide (MDRAB 12035 [2]; [7]): 1 µg/mL; Linezolid MIC during combined treatment with peptide (MDRAB 12035 [2]; [7]): 8 µg/mL; Vancomycin MIC during combined treatment with peptide (MDRAB 12035 [2]; [7]): 16 µg/mL; Erythromycin MIC during combined treatment with peptide (MDRAB 12035 [2]; [8]): 0.25 µg/mL; Linezolid MIC during combined treatment with peptide (MDRAB 12035 [2]; [8]): 8 µg/mL; Vancomycin MIC during combined treatment with peptide (MDRAB 12035 [2]; [8]): 8 µg/mL; Erythromycin MIC during combined treatment with peptide (MDRAB 12035 [2]; [9]): 0.125 µg/mL; Linezolid MIC during combined treatment with peptide (MDRAB 12035 [2]; [9]): 4 µg/mL; Vancomycin MIC during combined treatment with peptide (MDRAB 12035 [2]; [9]): 4 µg/mL; Erythromycin MIC during combined treatment with peptide (MDRAB 12035 [2]; [10]): 0 µg/mL; Linezolid MIC during combined treatment with peptide (MDRAB 12035 [2]; [10]): 0 µg/mL; Vancomycin MIC during combined treatment with peptide (MDRAB 12035 [2]; [10]): 0 µg/mL
